The text below walks through data of PMC12574689, “Synthesis of novel SRPK1-targeting hybrid compounds incorporating antimetabolites for cancer therapy” (RSC Medicinal Chemistry, 2025).

One data set relates to K562. In words: MTT viability assay, K562. The data set is classed as cell-based. To be noted: Homo sapiens, 48 h treatment, mean of three independent experiments. On the procedure:
(§1) To evaluate the cytotoxic effects of the hybrid compounds geo15 and geo140, we performed MTT assays on HeLa, K562, A549, HepG2, HT-29 and Caco2 cancer cell lines, as well as primary intestinal subepithelial myofibroblasts (SEMFs).
(§2) HeLa, K562, HT-29, Caco-2, HepG2 and A549 cancer cell lines were obtained from the American Type Culture Collection (ATCC). All cell lines were cultured at 37 °C with 5% CO2. HeLa, Caco-2, HepG2 and A549 cells were maintained in Dulbecco's modified Eagle medium (DMEM, PAN Biotech) supplemented with 10% FBS and antibiotics/antimycotics, while K562 cells were maintained in RPMI and HT-29 cells in McCoy's 5a medium (Biosera) with the same supplements.
(§3) All cells were seeded in 96-well plates (Corning, New York, USA) at density of 10^4 cells per well, except HeLa that were seeded at destiny of 2 × 10^3. After 24 hours, the cells were treated with increasing concentrations of the inhibitory compounds for 48 hours. Cytotoxic activity of parent and conjugate compounds was assessed by 3-(4,5-dimethylthiazol-2-yl)-2,5-diphenyltetrazolium bromide (MTT) assay, according to manufacturer's instructions. In brief, 100 μl of growth medium containing 0.5 mg ml^−1 MTT (Sigma-Aldrich, Darmstadt, Germany) were added to each well of a 96-well plate and incubated at 37 °C and 5% CO2 for 2 hours until the formation of visible intracellular purple crystals. Then, MTT-supplemented growth medium was discarded and 100 μl dimethyl sulfoxide (Sigma-Aldrich, Darmstadt, Germany) were added per well for solubilization of dye. Absorbance was then measured on a microplate reader (Diareader EL 800; Dialab, Wr. Neudorf, Austria) at 570 nm with a reference wavelength at 660 nm.

The test system of the next data set is HepG2. Nature of the data set: MTT viability assay, HepG2. The data set is classed as cell-based. To be noted: Homo sapiens, 48 h treatment, mean of three independent experiments. On the procedure: as §1, §2, §3
The next data set deals with SRPK1 in HeLa cells. Nature of the data set: Immunofluorescence of SRPK1 subcellular localization. It counts as cell-based. The method, then:
In a following step the effect of geo140 was tested on the subcellular distribution of SRPK1 in HeLa cells. To address this issue, a series of immunofluorescence experiments was performed to assess the effect of geo140, relative to its parent compounds, JH-VII-139-1 and 5-FU on SRPK1 localization.
Fig. 6 Fluorescent patterns of SRPK1 in HeLa cells treated with JH-VII-139-1, 5-FU, and geo140 (for the indicated concentrations and time periods). SRPK1 was detected using an anti-SRPK1 monoclonal antibody (Alexa488-green fluorescence) while nuclei were stained with PI (red fluorescence). Scale bar: 10 μm.
HeLa cells (3 × 10^4 cells per well) were seeded on glass coverslips in 24-well plates. After 24 hours, cells were treated with the indicated concentrations of inhibitors for 24 or 48 hours. Following incubation, samples were fixed with 4% paraformaldehyde in PBS for 20 minutes at room temperature. Paraformaldehyde was quenched with 100 mM Tris-HCl (pH 7.5), and cells were permeabilized with 0.2% Triton X-100 in PBS for 10 minutes. Blocking was performed with 0.5% fish skin gelatin in PBS. Cells were then probed with a primary antibody (anti-SRPK1 monoclonal, 1 : 100 dilution, BD Biosciences, San Jose, CA, USA) and a secondary antibody (Alexa488-conjugated goat anti-mouse, 1 : 400 dilution, Molecular Probes, Eugene, OR, USA), followed by DNA staining with propidium iodide, as previously described.[25] Coverslips were mounted with mounting medium (0.01% p-phenylenediamine and 50% glycerol in PBS) and visualized using a Nikon confocal microscope with EZ-C1 3.20 software.

The test system of a further data set is Caco2. In words: MTT viability assay, Caco2. The data set is classed as cell-based. To be noted: Homo sapiens, Caco-2, 48 h treatment, mean of three independent experiments. On the procedure: as §1, §2, §3
For the next data set, the system named is HeLa. Nature of the data set: MTT viability assay, HeLa. The data set is classed as cell-based. Particulars: Homo sapiens, 48 h treatment, mean of three independent experiments. On the procedure:
as §1, §2, §3

In the next data set the test system is HT-29. Nature of the data set: MTT viability assay, HT-29. The data set is classed as cell-based. Particulars: Homo sapiens; HT-29, MTT, 48 h treatment, mean of three independent experiments. The method, then:
as §1, §2, §3

In another data set the test system is A549. Nature of the data set: MTT viability assay, A549. It counts as cell-based. Particulars: Homo sapiens, 48 h treatment, mean of three independent experiments. On the procedure: as §1, §2, §3
For data set [1], the system named is primary intestinal subepithelial myofibroblasts (SEMFs). In words: MTT viability assay, primary SEMFs. It counts as cell-based. To be noted: Homo sapiens, 48 h treatment, mean of three independent experiments.
From the text: as §1
Intestinal myofibroblast isolation: primary intestinal subepithelial myofibroblasts were isolated from freshly collected intestinal mucosa biopsies as previously described,[28] from healthy individuals undergoing endoscopy for reasons of surveillance, after obtaining written and informed consent. Briefly, 4–6 pieces of intestinal tissue were collected in ice-cold Hank's Balanced Salt Solution (HBSS; Biosera, Nuaille, France) containing Ca^2+/Mg^2+ supplemented with P/S/A/G: penicillin (100 U ml^−1), streptomycin (100 μg ml^−1), amphotericin (2.5 μg ml^−1) and gentamycin (50 μg ml^−1), followed by 15 minute washes with HBSS with and without Ca^2+/Mg^2+ to remove possible contaminants. Next tissue was de-epithelialized by a 15 minute incubation in HBSS without Ca^2+/Mg^2+ containing 1 mM dithiothreitol (DTT, Sigma-Aldrich, Darmstadt, Germany) followed by 3× 30 minute washes in HBSS supplemented with 1 mM ethylenediaminetetraacetic acid (EDTA, Sigma-Aldrich, Darmstadt, Germany) at 37 °C. Tissue was cultured in RPMI 1640 (PAN Biotech, Aidenbach, Germany) supplemented with 10% fetal bovine serum (FBS; Biosera, Nuaille, France) and P/S/A/G for as long as 30 days at 37 °C and 5% CO2. After colonies of myofibroblasts reached 30% confluency, cells were detached and consequently cultured in 75 cm^2 flasks in Dulbecco's modified Eagle medium (DMEM, 4.5 g l^−1 glucose; PAN Biotech, Aidenbach, Germany) with 10% fetal bovine serum and P/S/A.
as §3

Data set [2] can be described thus: Chemostability in pH 5.2 and 7.4 buffers and DMEM (LC-ESI-MS). It counts as physicochemical. To be noted: 37 °C. The method, then:
(§4) The stability of SRPK1-targeting conjugates geo15 and geo140 was assessed at pH 5.2 and 7.4, as well as in cell culture medium (DMEM) and human plasma. All experiments were conducted at 37 °C, with samples analysed by LC-ESI-MS at specific time points. […] The half-lives of the conjugates ranged from several minutes to several hours, is discussed below.
(§5) Chemical stability experiments were conducted using LC-MS Method 4, except for the
(§6) pH stability studies of compound geo15, which were performed using LC-MS Method
(§7) 3. Representative chromatograms are provided for each experiment. geo15:
(§8) Figure S16. Chemical stability assay LC chromatograms for geo15.
(§9) Figure S17. Chemical stability assay LC chromatograms for geo140.

Data set [3] is described as follows: Stability in human plasma (LC-ESI-MS). Particulars: 37 °C. It counts as in vitro ADME. On the procedure:
as §4, §5, §6, §7, §8, §9

A further data set has as its system HeLa cells. Nature of the data set: Inverted phase-contrast microscopy of treated cells. The data set is classed as cell-based. To be noted: 10 μM, phase-contrast microscope. The method, then: A similar morphology of geo140-treated cells was also observed using an inverted phase-contrast microscope.
Fig. 7 Microscopic view of control HeLa cells and treated with 10 μM geo140, taken at 10× or 40× magnification as indicated, using an inverted phase-contrast microscope.

A further data set deals with T1, GST-SRPK1 (Homo sapiens, UniProt Q96SB4).
T1 construct: made in house; host or cells: bacteria (pGEX-2T vector)
In words: In vitro kinase assay, GST-SRPK1. It counts as biochemical. Particulars: substrate GST-LBRNt(62–92), 25 μM ATP. On the procedure: (§10) The inhibitory activity of geo140 and JH-VII-139-1 against SRPK1 and SRPK2 was assessed using in vitro kinase assays (Fig. 5). […] The IC50 values summarized in Panel E indicate that both JH-VII-139-1 and the hybrid compound geo140 act as effective inhibitors of SRPK-mediated phosphorylation, with however, differential selectivity between SRPK1 and SRPK2.
(§11) Fig. 5 Phosphorylation of 1 μg GST-LBRNt(62–92) by 0.5 μg GST-SRPK1 or 0.5 μg GST-SRPK2 in the presence of increasing concentrations of geo140 (A and B, respectively) or in the presence of increasing concentrations of JH-VII-139-1 (C and D, respectively). Panel C was taken from a previous publication of the authors.[2] The samples were analyzed by SDS-PAGE on 12% gels, stained with Coomassie blue and autoradiographed. Only the relevant part of the autorad corresponding to the phosphorylated substrate is shown. E. IC50 values of geo140 and JH-VII-139-1 against GST-SRPK1 and GST-SRPK2.
(§12) Human SRPK1, SRPK2, and a turkey LBR N-terminal fragment (amino acids 62–92; LBRNt(62–92)) were expressed as GST-fusion proteins in bacteria using the pGEX-2T vector (Amersham Biosciences) as previously described.[15] […] Phosphorylated GST-LBRNt(62–92) was detected by autoradiography (Super RX film, Fujifilm). Incorporated radioactivity was quantified by scintillation counting of the excised SDS-PAGE gel bands.

The target of a further data set is T2, GST-SRPK2 (Homo sapiens, UniProt P78362).
T2 construct: made in house; host or cells: bacteria (pGEX-2T vector)
Nature of the data set: In vitro kinase assay, GST-SRPK2. The data set is classed as biochemical. Particulars: substrate GST-LBRNt(62–92), 25 μM ATP. On the procedure:
as §10, §11, §12

T2 sequence (P78362 whole entry): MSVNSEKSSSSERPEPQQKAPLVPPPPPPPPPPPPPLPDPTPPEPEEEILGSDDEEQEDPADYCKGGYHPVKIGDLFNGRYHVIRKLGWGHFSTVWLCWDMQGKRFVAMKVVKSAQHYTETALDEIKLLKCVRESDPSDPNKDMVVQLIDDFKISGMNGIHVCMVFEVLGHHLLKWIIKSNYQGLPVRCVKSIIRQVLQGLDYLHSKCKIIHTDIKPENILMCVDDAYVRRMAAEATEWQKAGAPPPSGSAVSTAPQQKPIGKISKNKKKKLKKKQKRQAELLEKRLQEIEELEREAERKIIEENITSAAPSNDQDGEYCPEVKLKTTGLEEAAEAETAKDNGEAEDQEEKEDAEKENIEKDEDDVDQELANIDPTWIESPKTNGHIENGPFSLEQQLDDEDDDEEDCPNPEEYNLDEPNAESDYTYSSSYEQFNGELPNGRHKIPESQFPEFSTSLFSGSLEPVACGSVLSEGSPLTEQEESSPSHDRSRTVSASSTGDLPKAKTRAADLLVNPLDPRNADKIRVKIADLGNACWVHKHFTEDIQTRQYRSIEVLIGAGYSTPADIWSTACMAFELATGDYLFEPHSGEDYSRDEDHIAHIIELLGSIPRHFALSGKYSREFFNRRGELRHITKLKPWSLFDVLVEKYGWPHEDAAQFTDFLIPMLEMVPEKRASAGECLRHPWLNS
T1 sequence (Q96SB4 whole entry): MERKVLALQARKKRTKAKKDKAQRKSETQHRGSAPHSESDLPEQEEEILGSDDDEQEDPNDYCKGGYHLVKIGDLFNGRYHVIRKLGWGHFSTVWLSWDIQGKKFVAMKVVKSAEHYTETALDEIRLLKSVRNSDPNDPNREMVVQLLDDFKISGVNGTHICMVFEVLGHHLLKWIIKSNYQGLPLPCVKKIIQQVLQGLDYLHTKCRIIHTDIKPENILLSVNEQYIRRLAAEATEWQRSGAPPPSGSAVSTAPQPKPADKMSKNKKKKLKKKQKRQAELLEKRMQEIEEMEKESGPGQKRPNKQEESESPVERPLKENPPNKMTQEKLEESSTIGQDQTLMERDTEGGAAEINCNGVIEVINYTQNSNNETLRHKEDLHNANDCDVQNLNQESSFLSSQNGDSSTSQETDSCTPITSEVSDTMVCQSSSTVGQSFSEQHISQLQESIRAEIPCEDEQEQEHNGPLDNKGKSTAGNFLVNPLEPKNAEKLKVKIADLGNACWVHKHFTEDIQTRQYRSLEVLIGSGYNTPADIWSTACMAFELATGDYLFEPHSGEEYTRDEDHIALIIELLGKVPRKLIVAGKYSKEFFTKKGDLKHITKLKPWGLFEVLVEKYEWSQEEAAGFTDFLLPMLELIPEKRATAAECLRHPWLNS

Consider `O=c1[nH]cc(F)c(=O)[nH]1` [5-FU, 5-fluorouracil, reference compound], for which the EC50 is greater than 50 µM with K562; greater than 50 µM in the data set with HepG2; greater than 50 µM with Caco2; 25.7 µM in the data set on HeLa; 3.62 µM with HT-29; 15.2 µM with A549. Moreover, the EC50 in data set [1] is greater than 50 µM. The “effect on SRPK1 subcellular localization” value was “more diffuse SRPK1 staining pattern, with some nuclear translocation of the kinase” with SRPK1 in HeLa cells (20 μM, 24 h) and “almost complete nuclear translocation of SRPK1” in the data set with SRPK1 in HeLa cells (48 h).

In the case of `Nc1ccn([C@@H]2O[C@H](CO)[C@@H](O)C2(F)F)c(=O)n1` [Gemcitabine, gemcitabine, reference compound], the EC50 was greater than 50 µM with K562; 31.4 µM with HepG2; greater than 50 µM in the data set on Caco2; 6.7 µM with HeLa; 28.7 µM in the data set on HT-29; greater than 50 µM in the data set with A549. This molecule displayed an EC50 in data set [1] greater than 50 µM.

`COc1cc(/C=C(\C#N)C(=O)Nc2nnc(C(F)(F)F)s2)ccc1OCc1ccc(NC(=O)CNC(=O)OC[C@H]2O[C@@H](n3ccc(N)nc3=O)C(F)(F)[C@@H]2O)cc1` [geo15]: the EC50 in the data set on K562 was greater than 50 µM; in the data set on HepG2, greater than 50 µM; with Caco2 it was greater than 50 µM; in the data set with HeLa, 33.1 µM; with HT-29, 38.4 µM; with A549 it was greater than 50 µM. The EC50 in data set [1] was greater than 50 µM. The half-life in data set [2] (DMEM cell culture medium, DMEM) was greater than 48 h; in [2] (pH 7.4 buffer), greater than 48 h; in data set [3], greater than 48 h. Besides, the “detection of retro-Knoevenagel reaction product 21” value is listed as “not observed” in [2] (DMEM), “small percentage” in [2] (pH buffer media) and “not observed” in data set [3]. The “concentration of the conjugate remaining” value in data set [2] (during the 24 hour period, overall stability profile (all media)) is reported as “above 50%”. Moreover, the “release of SRPIN803 via the 1,6-elimination mechanism” value in [2] (stability media) is listed as “no release of SRPIN803”.

On to `CCc1cc2c(cc1-c1ccn(C(=O)NCCOCCOCCNC(=O)Cn3c(=O)[nH]cc(F)c3=O)n1)C(C)(C)c1[nH]c3cc(C#N)ccc3c1C2=O` [geo140, (JH-VII-139-1)–(5-FU) conjugate], for which the half-maximal effective concentration (EC50) with K562 is 13.7 µM; in the data set on HepG2, 27.1 µM; in the data set on Caco2, 31.2 µM; in the data set with HeLa, 11.7 µM; in the data set with HT-29, 19.3 µM; in the data set on A549, greater than 50 µM. In [1], this molecule registered an EC50 of 21.5 µM. Moreover, the “reduction in initial concentration” value was 10–20% in data set [2] (DMEM, after 24 hours) and 10–20% in data set [3] (after 24 hours). Also, the half-life in [2] (pH 5.2 buffer) and in data set [2] (pH 7.4 buffer) was greater than 48 h in each case. The “SRPK1 distribution in interphase cells” value in the data set on SRPK1 in HeLa cells is “SRPK1 retained a cytoplasmic distribution similar to that seen in untreated controls”. For the same molecule, the “number of mitotic cells” value in the data set with SRPK1 in HeLa cells (immunofluorescence) is “significant increase in the number of mitotic cells”. For the same molecule, in the data set with HeLa cells, the “mitotic cells (round shape, distinct chromosomal structures)” value was “significant increase in mitotic cells”. In addition, the IC50 was 0.0221 µM against GST-SRPK1 and 7.9 µM at GST-SRPK2.
